Data taken from the supplement of paper PMC10307832.

How the values were obtained:
Experiment in all cases: relative viability (nuclei count vs DMSO), 5 days (fraction); higher = more cells survive
[1] = compound: C=CCNC1=C2C[C@@H](C)C[C@H](OC)[C@H](O)[C@@H](C)/C=C(\C)[C@H](OC(N)=O)[C@@H](OC)/C=C\C=C(/C)C(=O)NC(=CC1=O)C2=O [17-AAG] + CS(=O)(=O)CCNCc1ccc(-c2ccc3ncnc(Nc4ccc(OCc5cccc(F)c5)c(Cl)c4)c3c2)o1 [Lapatinib] (partner 2 µM)
Method in brief: (§1)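 For relative viability, nuclei counts in treated wells were divided by those in vehicle wells. Lung cancer cell lines had been pin-tool dosed in 1536-well plates the day after seeding and cultured for 5 days, then fixed and stained in one step (final 0.05% Triton X-100, 1% formaldehyde, 1 ug/ml Hoechst) and imaged at 4×. Doses were one drug alone or a fixed anchor-drug dose plus five library-drug doses (not always all listed) in √10 steps, and values are duplicate-plate medians.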

[2] = compound: C=CCNC1=C2C[C@@H](C)C[C@H](OC)[C@H](O)[C@@H](C)/C=C(\C)[C@H](OC(N)=O)[C@@H](OC)/C=C\C=C(/C)C(=O)NC(=CC1=O)C2=O [17-AAG] + C[C@@H](Oc1cc(-c2cnn(C3CCNCC3)c2)cnc1N)c1c(Cl)ccc(F)c1Cl [Crizotinib] (partner 1 µM)
Method in brief: as §1

[3] = compound: C=CCNC1=C2C[C@@H](C)C[C@H](OC)[C@H](O)[C@@H](C)/C=C(\C)[C@H](OC(N)=O)[C@@H](OC)/C=C\C=C(/C)C(=O)NC(=CC1=O)C2=O [17-AAG] + Cc1cc(Nc2cc(N3CCN(C)CC3)nc(Sc3ccc(NC(=O)C4CC4)cc3)n2)n[nH]1 [Tozasertib] (partner 0.1 µM)
Method in brief: as §1

[4] = compound: C=CCNC1=C2C[C@@H](C)C[C@H](OC)[C@H](O)[C@@H](C)/C=C(\C)[C@H](OC(N)=O)[C@@H](OC)/C=C\C=C(/C)C(=O)NC(=CC1=O)C2=O [17-AAG] + Nc1ncn([C@H]2C[C@H](O)[C@@H](CO)O2)c(=O)n1 [Decitabine] (partner 2 µM)
Method in brief: as §1

Cell Line	relative viability ([1]; first compound 0.00128 µM)	relative viability ([1]; first compound 0.004048 µM)	relative viability ([1]; first compound 0.0128 µM)	relative viability ([1]; first compound 0.04048 µM)	relative viability ([1]; first compound 0.128 µM)	relative viability ([2]; first compound 0.00128 µM)	relative viability ([2]; first compound 0.004048 µM)	relative viability ([2]; first compound 0.0128 µM)	relative viability ([2]; first compound 0.04048 µM)	relative viability ([2]; first compound 0.128 µM)	relative viability ([3]; first compound 0.00128 µM)	relative viability ([3]; first compound 0.004048 µM)	relative viability ([3]; first compound 0.0128 µM)	relative viability ([3]; first compound 0.04048 µM)	relative viability ([3]; first compound 0.128 µM)	relative viability ([4]; first compound 0.00128 µM)	relative viability ([4]; first compound 0.004048 µM)	relative viability ([4]; first compound 0.0128 µM)	relative viability ([4]; first compound 0.04048 µM)	relative viability ([4]; first compound 0.128 µM)
201T	1	1.04	0.991	0.999	0.512	1.04	1.07	1.02	0.886	0.805	0.988	0.915	0.872	0.891	0.388	0.842	0.838	0.811	0.804	0.71
A-427	1.04	1.12	1.05	1.12	0.607	1.03	0.872	0.899	0.881	0.798	0.21	0.221	0.238	0.257	0.186	0.55	0.528	0.561	0.395	0.306
ABC-1	0.968	1.03	1.06	1.54	1.12	1.19	1.08	1.04	1.3	0.898	0.163	0.2	0.185	0.207	0.175	1.08	1.16	1.24	1.2	0.666
CAL-12T	0.645	0.598	0.611	0.527	0.334	0.676	0.775	0.646	0.778	0.255	0.328	0.24	0.375	0.314	0.153					
Calu-6	1.03	1.01	0.861	0.323	0.135	0.842	0.77	0.775	0.202	0.109										
ChaGo-K-1						1.11	1.07	1.03	0.628	0.293	0.215	0.249	0.279	0.217	0.205	0.444	0.55	0.491	0.514	0.428
EBC-1	0.217	0.234	0.192	0.2	0.2	0.237	0.207	0.163	0.148	0.135										
IA-LM	1.06	0.736	0.479	0.502	0.0825	0.807	0.663	0.758	0.291	0.0644										
LCLC-103H						1.12	0.979	0.976	0.928	1.06	0.555	0.55	0.458	0.532	0.643	0.757	0.715	0.731	0.812	0.797
NCI-H441						0.804	0.707	0.462	0.292	0.0949	0.723	0.609	0.321	0.235	0.15	0.275	0.219	0.121	0.118	0.137
NCI-H522											0.621	0.532	0.619	0.558	0.502	0.668	0.769	0.686	0.584	0.431
NCI-H1299	0.964	0.904	0.924	0.779	0.416	0.975	0.932	0.897	0.814	0.237										
NCI-H1395	0.903	1.12	0.485	0.406	0.417						0.625	0.698	0.694	0.408	0.342	0.611	0.694	0.568	0.387	0.383
NCI-H1563	0.878	0.729	0.567	0.606	0.618	0.903	0.836	0.562	0.462	0.473										
NCI-H1648											0.433		0.426	0.608	0.327		0.522	0.547	0.38	0.324
NCI-H1703	0.998	0.315	0.182	0.176	0.208	0.611	0.634	0.129	0.151	0.119										
NCI-H1792	0.783	1.02	0.704	0.638	0.115	0.997	1.02	0.897	0.848	0.19						0.444	0.345	0.194	0.12	0.0575
NCI-H1793	0.447	0.434	0.35	0.217	0.156						0.385	0.313	0.398	0.154	0.123	0.429	0.382	0.225	0.21	0.159
NCI-H2228	1.08	0.109	0.128	0.161	0.168	0.528	0.245	0.176	0.174	0.141	0.301	0.151	0.105	0.131	0.128					
NCI-H2342											0.442	0.437	0.518	0.493	0.306	0.735	0.686	0.739	0.77	0.619
SW 900											0.684	0.565	0.262	0.133	0.113	0.45	0.368	0.332	0.257	0.181
